# Assay results as given in patent US9790180B2, “Piperidine derivatives as HDAC1/2 inhibitors” (Acetylon Pharmaceuticals, Inc., priority 2014, dated 2017).
# Key:
# [1] = system: fetal β-like globin (HbG, γ); test: Fetal globin induction assay in CD34+ cells isolated from human bone marrow; format: cell-based
# Method: CD34+ cells isolated from human bone marrow were cultured in vitro using a method described by Bradner J E (Proc Natl Acad Sci USA. 2010 Jul. 13; 107(28):12617-22), which consists of a 7 day expansion phase in media that supports differentiation of cells towards the erythroid lineage followed by a differentiation phase for 3 days where erythroid cell development continues. At the end of the differentiation period these cells are primarily late erythroblasts. mRNA levels were determined by quantitative real time PCR using primer/probe sets designed to adult major β-globin (β), adult minor β-globin (δ), fetal β-like globin (HbG, γ), and embryonic β-like globin (ε). Protein levels were determined by flow cytometry using fluorescent antibodies against fetal hemoglobin (HbF) or adult hemoglobin (HbA).
# In the experiment shown in FIG. 3, cells were differentiated in the presence of vehicle (DMSO) 0.3, 1 and 3 μM of Compound A, and of 0.3, 1, and 3 μM of Compound 003. In the experiment shown in FIG. 6, cells were differentiated in the presence of vehicle (DMSO) 0.3, 1 and 3 μM of Compound A, and of 0.3, 1, and 3 μM of Compound 005. Globin mRNA levels were determined at day 3 of differentiation.
# Gata2 mRNA = Gata2 mRNA induction in erythroid progenitors; format: cell-based, human; settings: primary erythroid progenitors, 3 days differentiation, relative to beta-actin mRNA (FIG. 7)
# From the text: Human bone marrow derived CD34+ cells were expanded for 7 days as described by Sankaran et al., Science, vol. 322(5909), pp. 1839-42 (2008). Cells were then differentiated, in the presence of the indicated concentration of Compound 005, Compound A (another known HDAC1/2 inhibitor), or vehicle control (DMSO), for 3 days in media supporting erythropoiesis (Hu et al., “Isolation and functional characterization of human erythroblasts at distinct stages: implications for understanding of normal and disordered erythropoiesis in vivo”, Blood, vol. 121(16), pp. 3246-53 ([…])). Gata2 mRNA was determined using quantitative real time PCR and expressed relative to the level beta-actin mRNA control.
structure (smiles),measurement,setting,value
CN1CCN(C(=O)N2CCC(Nc3ccc(C(=O)Nc4cc(-c5cccs5)ccc4N)cc3)CC2)CC1 [Compound 005],Cell based assay potency,[1]; lowest concentration to achieve a 2 fold increase in fetal globin gene expression over baseline,1000 nM
same,induction of % HbG,"[1]; primary erythroid progenitors, 3 days differentiation (FIG. 6)",equivalent dose and time-dependent induction
same,induction of Gata2 mRNA,Gata2 mRNA,equivalent dose and time-dependent induction
